The target in data set [1] is PI3Kδ (Homo sapiens (Human), UniProt O00329). In words: Enzymatic activity of PI3K isoforms, TR-FRET assay (PI3Kδ). As to conditions: 2× Km ATP, geometric mean if more than one value. The data set is classed as biochemical. An outline of the steps: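 Recombinant heterodimeric PI3Kβ or PI3Kδ (25-50 pM) was run with 2 μM PIP2 and 2× Km ATP (75-500 μM) at pH 7.4, for 30 min at 25° C. PIP3 formation was detected by TR-FRET displacement of labeled PIP3 from Eu-GRP-1. IC50 values in nM come from four-parameter fits, as geometric means.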
Chain of PI3Kδ (O00329 whole entry, canonical isoform): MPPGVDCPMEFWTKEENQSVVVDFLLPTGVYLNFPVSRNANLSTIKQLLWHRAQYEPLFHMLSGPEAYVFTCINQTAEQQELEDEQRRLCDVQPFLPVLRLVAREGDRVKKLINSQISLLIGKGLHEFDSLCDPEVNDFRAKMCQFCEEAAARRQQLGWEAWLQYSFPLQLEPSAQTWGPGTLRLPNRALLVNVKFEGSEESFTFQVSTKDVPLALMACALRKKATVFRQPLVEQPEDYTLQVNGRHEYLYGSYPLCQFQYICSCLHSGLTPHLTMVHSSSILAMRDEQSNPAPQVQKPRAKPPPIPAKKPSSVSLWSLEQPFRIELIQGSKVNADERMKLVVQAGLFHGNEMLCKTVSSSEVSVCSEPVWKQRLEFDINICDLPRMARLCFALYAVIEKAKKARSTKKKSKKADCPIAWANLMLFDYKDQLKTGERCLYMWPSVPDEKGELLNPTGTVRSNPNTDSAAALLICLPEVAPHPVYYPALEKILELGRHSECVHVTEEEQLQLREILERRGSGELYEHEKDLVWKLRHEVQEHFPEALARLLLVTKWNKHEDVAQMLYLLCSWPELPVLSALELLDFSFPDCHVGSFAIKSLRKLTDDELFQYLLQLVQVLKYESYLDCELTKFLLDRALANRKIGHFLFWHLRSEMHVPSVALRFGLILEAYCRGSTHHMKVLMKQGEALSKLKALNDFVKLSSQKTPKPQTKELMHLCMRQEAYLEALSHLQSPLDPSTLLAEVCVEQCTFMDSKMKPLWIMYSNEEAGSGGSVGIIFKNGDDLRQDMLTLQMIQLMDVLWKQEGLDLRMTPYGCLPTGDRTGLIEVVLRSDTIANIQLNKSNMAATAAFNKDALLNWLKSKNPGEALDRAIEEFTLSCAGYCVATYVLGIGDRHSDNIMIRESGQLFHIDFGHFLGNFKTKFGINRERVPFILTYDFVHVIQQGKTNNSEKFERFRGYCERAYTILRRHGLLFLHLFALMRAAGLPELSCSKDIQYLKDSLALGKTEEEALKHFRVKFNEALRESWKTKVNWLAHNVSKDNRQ
Chain of PI3Kδ (P27986 whole entry partner, canonical isoform): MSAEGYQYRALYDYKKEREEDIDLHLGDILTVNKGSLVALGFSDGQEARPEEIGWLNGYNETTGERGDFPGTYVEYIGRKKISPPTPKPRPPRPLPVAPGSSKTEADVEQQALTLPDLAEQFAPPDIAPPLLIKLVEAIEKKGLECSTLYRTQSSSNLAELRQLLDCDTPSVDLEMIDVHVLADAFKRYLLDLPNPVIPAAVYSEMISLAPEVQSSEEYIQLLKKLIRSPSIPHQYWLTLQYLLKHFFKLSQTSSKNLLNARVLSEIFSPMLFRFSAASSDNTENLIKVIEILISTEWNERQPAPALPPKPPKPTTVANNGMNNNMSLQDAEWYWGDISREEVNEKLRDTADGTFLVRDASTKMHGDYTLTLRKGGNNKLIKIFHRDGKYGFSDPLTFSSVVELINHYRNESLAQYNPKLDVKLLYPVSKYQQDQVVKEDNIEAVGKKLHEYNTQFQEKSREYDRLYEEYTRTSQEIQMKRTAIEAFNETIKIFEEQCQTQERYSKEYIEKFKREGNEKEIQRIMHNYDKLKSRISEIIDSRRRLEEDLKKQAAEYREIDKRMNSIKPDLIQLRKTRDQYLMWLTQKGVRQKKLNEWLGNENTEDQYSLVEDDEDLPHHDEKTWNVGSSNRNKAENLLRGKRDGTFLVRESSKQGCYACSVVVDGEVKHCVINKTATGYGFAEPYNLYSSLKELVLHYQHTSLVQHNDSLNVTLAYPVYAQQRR
On the technique in general: Time-resolved FRET reads energy transfer from a long-lived donor to a nearby acceptor.

The target in data set [2] is PI3Kβ (Homo sapiens (Human), UniProt P42338). In words: Enzymatic activity of PI3K isoforms, TR-FRET assay (PI3Kβ). In kind it is biochemical. As to conditions: 2× Km ATP, geometric mean if more than one value. How it is done:
Enzymatic activity of the class I PI3K isoforms in the presence of the compounds of Table 1 and Compounds X, Y and Z was measured using a time-resolved fluorescence resonance energy transfer (TR-FRET) assay. The TR-FRET assay was used to monitor formation of the product 3,4,5-inositol triphosphate molecule (PIP3) as it competed with fluorescently labeled PIP3 for binding to the GRP-1 pleckstrin homology domain protein. An increase in […] product results in a decrease in TR-FRET signal as the labeled fluorophore is displaced from the GRP-1 protein binding site.
Class I PI3K isoforms were expressed and purified as heterodimeric recombinant proteins. All assay reagents and buffers for the TR-FRET assay were purchased from Millipore. PI3K isoforms were assayed under initial rate conditions in the presence of 25 mM Hepes (pH 7.4), and 2× Km ATP (75-500 μM), 2 μM PIP2, 5% glycerol, 5 mM MgCl2, 50 mM NaCl, 0.05% (v/v) Chaps, 1 mM dithiothreitol, 1% (v/v) DMSO at the following concentrations for each isoforms: PI3Kα, PI3Kβ, and PI3Kδ between 25 and 50 pM, and PI3Kγ at 2 nM. After an assay reaction time of 30 minutes at 25° C., reactions were terminated with a final concentration of 10 mM EDTA, 10 nM labeled-PIP3, and 35 nM Europium labeled GRP-1 detector protein before reading TR-FRET on an Envision plate reader (Ex: 340 nm; Em: 615/665 nm; […] delay and 500 μs read window).
Data were normalized based on positive ([…] wortmanin) and negative (DMSO) controls. α, β, δ, and γ IC50 values were calculated from the fit of the dose-response curves to a four-parameter equation. All IC50 values represent geometric mean values if more than one value was obtained. IC50 values were reported in units of nM.

Data set [3] in a line: Hepatocyte stability (parent drug disappearance in cryopreserved hepatocytes). The data set is classed as in vitro ADME, human. The settings on record: human, cryopreserved human hepatocytes, 2 μM substrate, 37° C.; Table 2a. Put shortly:
(§1)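 Test article at 2 μM incubated in duplicate with 1 million hepatocytes/mL at 37 °C, 5% CO2, humidified. Parent loss tracked by LC/MS at 0, 1, 2 and 4 h, giving half-life (t1/2) in hours.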

The subject of data set [4] is basophils. Briefly: Basophil activation in human whole blood (Flow2 CAST kit, CD63 flow cytometry). As to conditions: Homo sapiens, human whole blood, basophils activated with anti-FcεRI mAb or fMLP, percent CD63 positive cells. The data set is classed as cell-based.
The subject of data set [5] is cryopreserved human hepatocytes. Briefly: Hepatocyte stability (parent drug disappearance in cryopreserved hepatocytes). In kind it is in vitro ADME. As to conditions: human hepatocytes, 2 μM substrate, 37° C. An outline of the steps: as §1

Some results are limits rather than exact numbers.

Chain of PI3Kβ (P42338 whole entry, the tested form may be a part, canonical isoform): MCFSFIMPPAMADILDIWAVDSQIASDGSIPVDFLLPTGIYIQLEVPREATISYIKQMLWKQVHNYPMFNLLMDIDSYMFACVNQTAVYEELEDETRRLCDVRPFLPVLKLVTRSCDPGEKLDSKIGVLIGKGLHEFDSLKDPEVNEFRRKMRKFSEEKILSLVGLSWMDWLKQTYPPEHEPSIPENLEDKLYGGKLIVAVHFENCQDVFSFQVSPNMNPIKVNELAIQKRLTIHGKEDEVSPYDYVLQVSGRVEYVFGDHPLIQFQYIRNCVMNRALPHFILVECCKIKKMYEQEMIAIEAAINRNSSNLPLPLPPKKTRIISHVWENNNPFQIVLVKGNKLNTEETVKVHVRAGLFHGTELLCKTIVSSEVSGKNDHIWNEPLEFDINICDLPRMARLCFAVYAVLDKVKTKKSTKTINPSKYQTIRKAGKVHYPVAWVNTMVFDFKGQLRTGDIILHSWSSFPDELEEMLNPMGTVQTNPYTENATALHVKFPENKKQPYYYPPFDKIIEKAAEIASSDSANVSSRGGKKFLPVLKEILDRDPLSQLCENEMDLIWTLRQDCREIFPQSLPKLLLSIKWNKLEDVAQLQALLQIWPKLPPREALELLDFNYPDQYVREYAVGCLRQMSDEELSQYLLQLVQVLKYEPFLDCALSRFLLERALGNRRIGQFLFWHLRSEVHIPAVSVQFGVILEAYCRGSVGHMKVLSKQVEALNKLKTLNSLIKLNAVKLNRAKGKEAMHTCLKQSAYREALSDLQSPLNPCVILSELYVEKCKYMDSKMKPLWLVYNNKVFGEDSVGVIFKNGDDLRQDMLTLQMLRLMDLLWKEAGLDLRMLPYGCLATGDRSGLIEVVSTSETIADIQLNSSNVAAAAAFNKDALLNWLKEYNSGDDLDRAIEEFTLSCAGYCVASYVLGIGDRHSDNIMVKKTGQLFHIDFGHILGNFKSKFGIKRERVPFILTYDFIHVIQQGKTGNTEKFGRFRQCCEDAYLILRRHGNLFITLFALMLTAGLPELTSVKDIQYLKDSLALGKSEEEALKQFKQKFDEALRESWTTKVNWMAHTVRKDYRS
Chain of PI3Kβ (P27986 whole entry partner, the tested form may be a part, canonical isoform): as the sequence (P27986 whole entry partner, canonical isoform) above

As a reminder, the IC50 is the midpoint of a concentration-inhibition curve. Read a low IC50 as inhibition by little substance. The half-life is how long it takes for the measured level to halve. In the case of `C[C@H](Nc1nc(N)nc(N)c1Cl)c1nc2cccc(Cl)c2c(=O)n1-c1ccc(N)nc1` [Compound 85, (S)-3-(6-aminopyridin-3-yl)-5-chloro-2-(1-((2,6-diamino-5-chloropyrimidin-4-yl)amino)ethyl)quinazolin-4(3H)-one], the values for the IC50 in data set [1] and in data set [2] were 3000 pM and 9000 pM, respectively. Further, the half-life at 2 μM in data set [3] is over 10 h.
By EC50 is commonly meant the concentration needed to bring the measured effect to its halfway point. Regarding `Cc1c(F)cncc1-n1c([C@H](C)Nc2nc(N)nc(N)c2C#N)nc2cccc(Cl)c2c1=O` (atropisomer, axis not shown) [Compound 47, (S)-2,4-diamino-6-(1-(5-chloro-3-(5-fluoro-4-methylpyridin-3-yl)-4-oxo-3,4-dihydroquinazolin-2-yl)ethylamino)pyrimidine-5-carbonitrile], the midpoint of inhibition in data set [1], the IC50, lay at 500 pM. For the same compound, the 50% effective concentration (EC50) in data set [4] (class symbol) was under 1000 pM; in data set [4] (geometric mean), 400 pM. The t1/2 result in data set [5] (class symbol) is “***** (***** = >10 h)”; in data set [5] (Table 3) it was over 10 h.
With `CC[C@H](Nc1nc(N)nc(N)c1C#N)c1nc2cccc(Cl)c2c(=O)n1-c1ccc(N)nc1` [Compound 87, (S)-2,4-diamino-6-((1-(3-(6-aminopyridin-3-yl)-5-chloro-4-oxo-3,4-dihydroquinazolin-2-yl)propyl)amino)pyrimidine-5-carbonitrile], the values for the IC50 in data set [1] and in data set [2] were 600 pM and 800 pM, respectively. Also, the half-life at 2 μM in data set [3] is over 10 h.
For `CC[C@H](Nc1nc(N)nc(N)c1C#N)c1nc2cccc(Cl)c2c(=O)n1-c1cnc(N)cc1C` (atropisomer, axis not shown) [Compound 92, (S)-2,4-diamino-6-((1-(3-(6-amino-4-methylpyridin-3-yl)-5-chloro-4-oxo-3,4-dihydroquinazolin-2-yl)propyl)amino)pyrimidine-5-carbonitrile], in that order: 800 pM, 1000 pM and 4 h.
Take `C[C@H](Nc1nc(N)nc(N)c1Cl)c1nc2c(F)ccc(Cl)c2c(=O)n1-c1ccc(N)nc1` [Compound 88, (S)-3-(6-aminopyridin-3-yl)-5-chloro-2-(1-((2,6-diamino-5-chloropyrimidin-4-yl)amino)ethyl)-8-fluoroquinazolin-4(3H)-one]: the IC50 is 6000 pM in data set [1] and 11000 pM in data set [2]. Further, in data set [3], the half-life at 2 μM was over 10 h.
On the same counts, the results for `Cc1cc(N)ncc1-n1c([C@H](C)Nc2nc(N)nc(N)c2C#N)nc2cccc(Cl)c2c1=O` (atropisomer, axis not shown) [Compound 94, (S)-2,4-diamino-6-((1-(3-(6-amino-4-methylpyridin-3-yl)-5-chloro-4-oxo-3,4-dihydroquinazolin-2-yl)ethyl)amino)pyrimidine-5-carbonitrile] are 500 pM, 1000 pM and 10 h.
As for `C[C@H](Nc1nc(N)nc(N)c1C#N)c1nc2cccc(Cl)c2c(=O)n1-c1ccc(N)nc1` [Compound 97, (S)-2,4-diamino-6-((1-(3-(6-aminopyridin-3-yl)-5-chloro-4-oxo-3,4-dihydroquinazolin-2-yl)ethyl)amino)pyrimidine-5-carbonitrile], the IC50 in data set [1] was determined as 800 pM; in data set [2], 700 pM. In data set [3], the half-life at 2 μM was over 10 h.

The values are drawn from patent US9221795B2, “Phosphatidylinositol 3-kinase inhibitors” (Gilead Sciences, Inc., priority 2013, dated 2015).
